Assay [1] has as its target T1, Adrenergic receptor alpha-2 (Rattus norvegicus, UniProt P22086+P19328+P22909).
T1 sequence (P22086 whole entry): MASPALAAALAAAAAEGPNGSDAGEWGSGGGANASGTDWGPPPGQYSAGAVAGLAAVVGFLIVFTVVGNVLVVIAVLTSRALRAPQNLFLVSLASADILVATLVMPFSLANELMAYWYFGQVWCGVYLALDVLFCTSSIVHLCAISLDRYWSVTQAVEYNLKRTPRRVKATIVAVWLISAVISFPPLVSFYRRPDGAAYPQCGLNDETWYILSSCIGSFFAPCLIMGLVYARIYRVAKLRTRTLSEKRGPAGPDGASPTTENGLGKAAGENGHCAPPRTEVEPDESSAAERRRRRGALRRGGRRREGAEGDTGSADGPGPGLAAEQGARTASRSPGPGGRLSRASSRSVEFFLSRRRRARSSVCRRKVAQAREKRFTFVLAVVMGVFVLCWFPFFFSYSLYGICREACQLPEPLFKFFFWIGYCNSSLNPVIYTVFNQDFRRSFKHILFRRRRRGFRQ
T1 sequence (P19328 whole entry): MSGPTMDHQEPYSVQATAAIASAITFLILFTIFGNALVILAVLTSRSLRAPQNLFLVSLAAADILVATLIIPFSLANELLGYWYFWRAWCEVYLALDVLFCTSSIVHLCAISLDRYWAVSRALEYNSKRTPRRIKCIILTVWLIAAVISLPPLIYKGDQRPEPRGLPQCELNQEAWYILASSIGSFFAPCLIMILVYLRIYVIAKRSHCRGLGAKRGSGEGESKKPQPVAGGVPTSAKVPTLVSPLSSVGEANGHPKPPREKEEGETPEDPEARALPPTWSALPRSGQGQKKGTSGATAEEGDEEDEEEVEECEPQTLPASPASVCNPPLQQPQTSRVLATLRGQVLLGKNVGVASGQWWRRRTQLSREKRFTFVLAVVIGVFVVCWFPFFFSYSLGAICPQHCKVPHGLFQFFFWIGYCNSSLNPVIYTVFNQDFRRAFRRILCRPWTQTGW
T1 sequence (P22909 whole entry): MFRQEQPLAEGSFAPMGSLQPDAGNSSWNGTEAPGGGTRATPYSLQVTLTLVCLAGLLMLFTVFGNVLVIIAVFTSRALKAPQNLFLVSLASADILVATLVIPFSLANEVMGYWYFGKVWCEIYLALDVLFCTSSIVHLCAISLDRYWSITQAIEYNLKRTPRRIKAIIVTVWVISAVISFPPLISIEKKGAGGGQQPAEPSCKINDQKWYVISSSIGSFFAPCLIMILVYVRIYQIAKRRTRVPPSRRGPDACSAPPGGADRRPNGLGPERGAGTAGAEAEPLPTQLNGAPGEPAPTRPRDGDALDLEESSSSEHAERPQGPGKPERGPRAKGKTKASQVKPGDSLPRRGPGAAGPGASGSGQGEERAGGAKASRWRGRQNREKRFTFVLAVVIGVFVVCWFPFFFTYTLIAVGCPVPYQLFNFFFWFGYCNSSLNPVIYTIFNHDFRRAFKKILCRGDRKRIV
Nature of the assay: Inhibition of specific [3H]clonidine binding (0.4 nM) to rat brain membranes alpha-2 adrenergic receptor. It is filed as cell membranes, Membrane.

Assay [2] concerns the target T2, Adrenergic receptor alpha-1 (Homo sapiens, UniProt P35348+P25100+P35368).
T2 sequence (P35348 whole entry): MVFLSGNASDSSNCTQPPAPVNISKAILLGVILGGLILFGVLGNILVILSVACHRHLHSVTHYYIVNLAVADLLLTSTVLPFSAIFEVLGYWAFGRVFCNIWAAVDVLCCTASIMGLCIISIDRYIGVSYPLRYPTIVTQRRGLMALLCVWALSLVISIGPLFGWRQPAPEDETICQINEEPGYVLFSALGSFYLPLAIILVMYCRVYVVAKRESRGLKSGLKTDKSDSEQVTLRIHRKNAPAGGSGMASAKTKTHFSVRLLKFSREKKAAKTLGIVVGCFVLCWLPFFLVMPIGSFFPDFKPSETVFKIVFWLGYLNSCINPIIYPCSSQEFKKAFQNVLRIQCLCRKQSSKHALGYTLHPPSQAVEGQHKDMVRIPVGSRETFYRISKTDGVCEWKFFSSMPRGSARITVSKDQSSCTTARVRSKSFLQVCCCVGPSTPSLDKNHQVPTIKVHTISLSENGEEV
T2 sequence (P25100 whole entry): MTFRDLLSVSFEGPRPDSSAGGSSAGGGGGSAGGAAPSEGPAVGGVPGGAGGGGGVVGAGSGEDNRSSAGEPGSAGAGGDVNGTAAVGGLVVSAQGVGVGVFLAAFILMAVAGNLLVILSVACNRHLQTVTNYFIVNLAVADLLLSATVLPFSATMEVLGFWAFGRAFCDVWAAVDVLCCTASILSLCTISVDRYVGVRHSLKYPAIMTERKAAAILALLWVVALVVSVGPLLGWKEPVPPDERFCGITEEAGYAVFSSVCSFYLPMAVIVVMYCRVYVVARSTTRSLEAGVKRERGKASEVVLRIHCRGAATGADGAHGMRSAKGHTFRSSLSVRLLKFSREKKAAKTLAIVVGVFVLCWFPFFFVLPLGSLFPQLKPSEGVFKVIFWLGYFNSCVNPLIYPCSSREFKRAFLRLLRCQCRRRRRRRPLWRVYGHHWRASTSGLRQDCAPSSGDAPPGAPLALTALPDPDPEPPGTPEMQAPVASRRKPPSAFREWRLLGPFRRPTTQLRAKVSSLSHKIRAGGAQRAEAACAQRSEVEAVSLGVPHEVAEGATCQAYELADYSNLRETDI
T2 sequence (P35368 whole entry): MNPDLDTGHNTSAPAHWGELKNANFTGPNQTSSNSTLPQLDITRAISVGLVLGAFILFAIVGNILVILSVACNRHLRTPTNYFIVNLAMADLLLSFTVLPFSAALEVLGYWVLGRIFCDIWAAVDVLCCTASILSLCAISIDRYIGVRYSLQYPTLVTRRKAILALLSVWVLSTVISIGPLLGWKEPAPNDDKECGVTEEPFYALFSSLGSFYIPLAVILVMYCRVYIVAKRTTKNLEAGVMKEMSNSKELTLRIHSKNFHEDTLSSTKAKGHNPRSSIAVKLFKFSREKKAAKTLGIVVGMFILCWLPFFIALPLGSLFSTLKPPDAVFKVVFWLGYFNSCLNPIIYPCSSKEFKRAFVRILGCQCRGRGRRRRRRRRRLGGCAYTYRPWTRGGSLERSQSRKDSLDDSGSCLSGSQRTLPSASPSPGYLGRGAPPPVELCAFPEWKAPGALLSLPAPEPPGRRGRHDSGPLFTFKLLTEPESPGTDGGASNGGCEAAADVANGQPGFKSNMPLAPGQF
Put plainly: In vitro antagonist activity against (-)-phenylephrine or (-)-norepinephrine-induced alpha1-adrenoceptor-mediated vasoconstriction of rabbit isolated pulmonary artery. It is filed as functional, Oryctolagus cuniculus. The conditions noted are these: target entry is the homologue from another species.

Assay [3] addresses T1, Adrenergic receptor alpha-2. Put plainly: Antagonist activity against B-HT 933-induced alpha-2-adrenoceptor-mediated vasoconstriction in pithed normotensive rats. It is filed as functional.

The results in this text go back to ChEMBL document CHEMBL1122788, “Quantitative relationships between alpha-adrenergic activity and binding affinity of alpha-adrenoceptor agonists and antagonists” (J Med Chem, 1984).

As a reminder, the IC50 is the concentration that inhibits the measured activity by half. Broadly, the pA2 is the negative logarithm of the molar antagonist concentration that doubles the agonist concentration needed for the same response.

In assay [1], `C=CCN1Cc2ccccc2-c2ccccc2C1` [AZAPETINE] displayed a concentration for half-maximal inhibition (IC50) of 1300 nM. In addition, the figures for the pA2 in assay [2] and in assay [3] were 6.96 and 4.88, respectively.
For `CN1C[C@H](C(=O)N[C@]2(C)O[C@@]3(O)[C@@H]4CCCN4C(=O)[C@H](Cc4ccccc4)N3C2=O)C[C@@H]2c3cccc4[nH]cc(c34)C[C@H]21` [DIHYDROERGOTAMINE] the same measures were 3.7 nM, 7.55 and 7.25.
